Assay results as given in patent US10967078B2, “Radiolabelled mGluR2 PET ligands” (Janssen Pharmaceutica NV, priority 2014, dated 2021).

Assay: Biodistribution studies in normal female Wistar rats
Format: in vivo, rat
Details: for % ID blood / SUV blood / % ID bone / SUV bone / % ID carcass / % ID cerebellum / SUV cerebellum / SUV cerebrum + cerebellum / % ID cerebrum total / % ID cortex / SUV cortex / % ID heart / % ID hippocampus / SUV hippocampus / % ID intestines / % ID kidneys / % ID liver / % ID lungs / % ID muscle / SUV muscle / % ID rest of cerebrum / SUV rest of cerebrum / % ID spleen + pancreas / % ID stomach / % ID striatum / SUV striatum / % ID urine / SUV whole cerebrum: mean n=3; for SUV cerebrum + cerebellum / Total brain uptake: cerebrum + cerebellum; for Total brain uptake: n=3
Method: High-performance liquid chromatography (HPLC) analysis was performed on a LaChrom Elite® HPLC system (Hitachi, Armstadt, Germany) connected to a UV spectrometer. For the analysis of radiolabeled compounds, the HPLC eluate, after passage through the UV detector, was led over a shielded 3-inch NaI(Tl) scintillation detector connected to a single channel analyser (Gabi box, Raytest, Straubenhardt, Germany). The output signal was recorded and analysed using a GINA Star data acquisition system (Raytest, Straubenhardt, Germany). Radioactivity in samples of biodistribution studies was quantified using an automated gamma counter equipped with a 3-inch NaI(Tl) well crystal coupled to a multichannel analyser (Wallac 2480 Wizard, Wallac, Turku, Finland). Results were corrected for background radiation, physical decay and counter dead time. Animals were housed in individually ventilated cages in a thermoregulated (˜22° C.), humidity-controlled facility under a 12 h/12 h light/dark cycle with access to food and water ad libitum. All animal experiments were conducted according to the Belgian code of practice for the care and use of animals, after approval from the local University Ethics Committee for Animals.
Biodistribution studies of [^11C]-2 and [^11C]-1 were carried out in healthy female Wister rats (body weight 185-220 g) at 2 min, 30 min and 60 min post injection (p.i.) (n=3/time point). Rats were injected with about 18 MBq of the tracer via a tail vein under anesthesia (2.5% isoflurane in O2 at 1 L/min flow rate) and sacrificed by decapitation at the above specified time points. Blood and major organs were collected in tared tubes and weighed. The radioactivity in blood, organs and other body parts was measured using an automated gamma counter. For calculation of total blood radioactivity, blood mass was assumed to be 7% of the body mass. For calculation of total muscle and total bone radioactivity, muscle and bone mass were assumed to be 40% and 12% of the body mass, respectively.

For `C[C@H]1CN(c2ccc(C(F)(F)F)cc2)C(=O)c2c(-c3ccnc(N[11CH3])c3)cnn21` [[^11C]-2], the “2 min - to- 30 min wash-out ratio” value (blood) was 1.75, the “% ID blood” value (blood, 2 min p.i.) was 4.9 % ID and the SUV blood (blood, 2 min p.i.) was 0.70 SUV. The “% ID blood” value (blood, 30 min p.i.) was 2.8 % ID, the SUV blood (blood, 30 min p.i.) was 0.40 SUV and the “% ID blood” value (blood, 60 min p.i.) was 2.0 % ID. The SUV blood (blood, 60 min p.i.) was 0.29 SUV, the “2 min - to- 30 min wash-out ratio” value (bone) was 1.34 and the “% ID bone” value (bone, 2 min p.i.) was 7.0 % ID. The SUV bone (bone, 2 min p.i.) was 0.59 SUV, the “% ID bone” value (bone, 30 min p.i.) was 4.9 % ID and the SUV bone (bone, 30 min p.i.) was 0.44 SUV. For the same compound, the “% ID bone” value (bone, 60 min p.i.) was 4.2 % ID, the SUV bone (bone, 60 min p.i.) was 0.37 SUV and the “% ID carcass” value (2 min p.i.) was 39.5 % ID. For the same compound, the “% ID carcass” value (30 min p.i.) was 49.9 % ID, the “% ID carcass” value (60 min p.i.) was 44.8 % ID and the “2 min - to- 30 min wash-out ratio” value (cerebellum) was 2.85. The “% ID cerebellum” value (cerebellum, 2 min p.i.) was 0.279 % ID, the SUV cerebellum (cerebellum, 2 min p.i.) was 1.78 SUV and the “% ID cerebellum” value (cerebellum, 30 min p.i.) was 0.084 % ID. The SUV cerebellum (cerebellum, 30 min p.i.) was 0.62 SUV, the “% ID cerebellum” value (cerebellum, 60 min p.i.) was 0.058 % ID and the SUV cerebellum (cerebellum, 60 min p.i.) was 0.45 SUV. For the same compound, the “SUV cerebrum + cerebellum” value (2 min p.i.) was 1.80 SUV, the Total brain uptake (2 min p.i.) was 1.4 % ID and the Total brain uptake (2 min p.i., listed as [^11C-2]) was 1.44 ± 0.24 % ID. For the same compound, the “SUV cerebrum + cerebellum” value (30 min p.i.) was 0.67 SUV, the Total brain uptake (30 min p.i.) was 0.50 ± 0.05 % ID and the “SUV cerebrum + cerebellum” value (60 min p.i.) was 0.49 SUV. For the same compound, the Total brain uptake (60 min p.i.) was 0.38 ± 0.03 % ID, the “% ID cerebrum total” value (2 min p.i.) was 1.153 % ID and the “% ID cerebrum total” value (30 min p.i.) was 0.408 % ID. The “% ID cerebrum total” value (60 min p.i.) was 0.316 % ID, the “2 min - to- 30 min wash-out ratio” value (cortex) was 3.04 and the “% ID cortex” value (cortex, 2 min p.i.) was 0.064 % ID. The SUV cortex (cortex, 2 min p.i.) was 2.23 SUV, the “% ID cortex” value (cortex, 30 min p.i.) was 0.024 % ID and the SUV cortex (cortex, 30 min p.i.) was 0.74 SUV. For the same compound, the “% ID cortex” value (cortex, 60 min p.i.) was 0.014 % ID, the SUV cortex (cortex, 60 min p.i.) was 0.58 SUV and the “% ID heart” value (2 min p.i.) was 1.0 % ID. For the same compound, the “% ID heart” value (30 min p.i.) was 0.4 % ID, the “% ID heart” value (60 min p.i.) was 0.3 % ID and the “2 min - to- 30 min wash-out ratio” value (hippocampus) was 2.31. The “% ID hippocampus” value (hippocampus, 2 min p.i.) was 0.046 % ID, the SUV hippocampus (hippocampus, 2 min p.i.) was 1.49 SUV and the “% ID hippocampus” value (hippocampus, 30 min p.i.) was 0.018 % ID. For the same compound, the SUV hippocampus (hippocampus, 30 min p.i.) was 0.64 SUV, the “% ID hippocampus” value (hippocampus, 60 min p.i.) was 0.016 % ID and the SUV hippocampus (hippocampus, 60 min p.i.) was 0.49 SUV. The “% ID intestines” value (2 min p.i.) was 12.2 % ID, the “% ID intestines” value (30 min p.i.) was 19.4 % ID and the “% ID intestines” value (60 min p.i.) was 24.2 % ID. For the same compound, the “% ID kidneys” value (2 min p.i.) was 5.3 % ID, the “% ID kidneys” value (30 min p.i.) was 2.2 % ID and the “% ID kidneys” value (60 min p.i.) was 1.6 % ID. The “% ID liver” value (2 min p.i.) was 26.5 % ID, the “% ID liver” value (30 min p.i.) was 16.0 % ID and the “% ID liver” value (60 min p.i.) was 11.9 % ID. For the same compound, the “% ID lungs” value (2 min p.i.) was 6.8 % ID, the “% ID lungs” value (30 min p.i.) was 1.8 % ID and the “% ID lungs” value (60 min p.i.) was 1.3 % ID. The “2 min - to- 30 min wash-out ratio” value (muscle) was 0.46, the “% ID muscle” value (muscle, 2 min p.i.) was 11.1 % ID and the SUV muscle (muscle, 2 min p.i.) was 0.26 SUV. For the same compound, the “% ID muscle” value (muscle, 30 min p.i.) was 24.1 % ID, the SUV muscle (muscle, 30 min p.i.) was 0.56 SUV and the “% ID muscle” value (muscle, 60 min p.i.) was 21.4 % ID. The SUV muscle (muscle, 60 min p.i.) was 0.48 SUV, the “2 min - to- 30 min wash-out ratio” value (rest of cerebrum) was 2.71 and the “% ID rest of cerebrum” value (rest of cerebrum, 2 min p.i.) was 0.944 % ID. For the same compound, the “SUV rest of cerebrum” value (rest of cerebrum, 2 min p.i.) was 1.79 SUV, the “% ID rest of cerebrum” value (rest of cerebrum, 30 min p.i.) was 0.323 % ID and the “SUV rest of cerebrum” value (rest of cerebrum, 30 min p.i.) was 0.66 SUV. For the same compound, the “% ID rest of cerebrum” value (rest of cerebrum, 60 min p.i.) was 0.256 % ID, the “SUV rest of cerebrum” value (rest of cerebrum, 60 min p.i.) was 0.49 SUV and the “% ID spleen + pancreas” value (2 min p.i.) was 2.4 % ID. For the same compound, the “% ID spleen + pancreas” value (30 min p.i.) was 1.4 % ID, the “% ID spleen + pancreas” value (60 min p.i.) was 1.1 % ID and the “% ID stomach” value (2 min p.i.) was 2.3 % ID. The “% ID stomach” value (30 min p.i.) was 6.5 % ID, the “% ID stomach” value (60 min p.i.) was 12.3 % ID and the “2 min - to- 30 min wash-out ratio” value (striatum) was 2.59. The “% ID striatum” value (striatum, 2 min p.i.) was 0.099 % ID, the SUV striatum (striatum, 2 min p.i.) was 1.68 SUV and the “% ID striatum” value (striatum, 30 min p.i.) was 0.043 % ID. The SUV striatum (striatum, 30 min p.i.) was 0.65 SUV, the “% ID striatum” value (striatum, 60 min p.i.) was 0.030 % ID and the SUV striatum (striatum, 60 min p.i.) was 0.49 SUV. The “% ID urine” value (2 min p.i.) was 0.1 % ID, the “% ID urine” value (30 min p.i.) was 0.5 % ID and the “% ID urine” value (60 min p.i.) was 11 % ID. The “2 min - to- 30 min wash-out ratio” value (whole cerebrum) was 2.70, the SUV whole cerebrum (whole cerebrum, 2 min p.i.) was 1.79 SUV and the SUV whole cerebrum (whole cerebrum, 30 min p.i.) was 0.66 SUV. It also gave an SUV whole cerebrum (whole cerebrum, 60 min p.i.) of 0.49 SUV.
